The results in this text go back to ChEMBL document CHEMBL1201862, “PubChem BioAssay data set” (2004).

One may read the IC50 as the concentration needed to halve the response being measured. What is called EC50 is the concentration that produces a half-maximal response.

The target in assay [1] is Diphosphomevalonate decarboxylase (Streptococcus pneumoniae serotype 2 (strain D39 / NCTC 7466), UniProt Q9FD53). In words: S. pneumoniae DPM-DC inhibition retest, confirmation, biochemical, cuvette format, coupled NADH fluorescence (AID 1028). The assay is classed as functional.
Diphosphomevalonate decarboxylase, sequence (Q9FD53 whole entry): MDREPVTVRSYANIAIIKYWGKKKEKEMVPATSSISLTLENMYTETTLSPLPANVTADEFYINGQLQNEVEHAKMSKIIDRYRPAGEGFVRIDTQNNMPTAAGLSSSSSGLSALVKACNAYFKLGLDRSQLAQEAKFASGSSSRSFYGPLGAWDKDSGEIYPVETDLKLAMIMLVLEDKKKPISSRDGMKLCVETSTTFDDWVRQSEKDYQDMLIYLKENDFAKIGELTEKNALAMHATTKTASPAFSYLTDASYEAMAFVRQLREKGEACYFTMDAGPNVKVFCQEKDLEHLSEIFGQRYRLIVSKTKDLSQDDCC
Assay [2] has as its target T1, Aryl hydrocarbon receptor (Homo sapiens, UniProt P35869).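 Further: confirmatory quantitative high-throughput screen measuring activation of the AhR signaling pathway.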
T1 sequence (P35869 whole entry): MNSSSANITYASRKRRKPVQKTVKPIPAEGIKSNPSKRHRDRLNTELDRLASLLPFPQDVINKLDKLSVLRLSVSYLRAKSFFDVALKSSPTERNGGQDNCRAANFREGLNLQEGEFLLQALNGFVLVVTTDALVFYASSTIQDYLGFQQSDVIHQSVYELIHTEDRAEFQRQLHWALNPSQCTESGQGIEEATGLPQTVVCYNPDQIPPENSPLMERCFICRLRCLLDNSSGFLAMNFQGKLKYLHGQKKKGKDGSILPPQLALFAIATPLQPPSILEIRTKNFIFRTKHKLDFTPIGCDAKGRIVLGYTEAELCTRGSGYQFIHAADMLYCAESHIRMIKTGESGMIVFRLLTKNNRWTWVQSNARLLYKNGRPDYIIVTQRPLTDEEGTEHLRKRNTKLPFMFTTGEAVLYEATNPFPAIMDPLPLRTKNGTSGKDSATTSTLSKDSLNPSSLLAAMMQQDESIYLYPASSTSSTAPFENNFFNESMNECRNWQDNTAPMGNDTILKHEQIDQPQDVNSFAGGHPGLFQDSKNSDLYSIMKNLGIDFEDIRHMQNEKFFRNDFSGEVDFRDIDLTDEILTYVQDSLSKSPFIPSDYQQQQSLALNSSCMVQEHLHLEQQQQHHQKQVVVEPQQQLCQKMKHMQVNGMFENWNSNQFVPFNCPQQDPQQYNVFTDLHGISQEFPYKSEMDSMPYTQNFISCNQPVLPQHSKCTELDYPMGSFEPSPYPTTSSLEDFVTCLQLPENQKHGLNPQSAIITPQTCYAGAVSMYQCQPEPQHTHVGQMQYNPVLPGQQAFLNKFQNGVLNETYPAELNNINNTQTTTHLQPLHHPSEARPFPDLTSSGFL
The conditions noted are these: Potency.

Assay [3] in a line: half-maximal inhibitory concentration for glucagon-like peptide-1 release, STC-1 cell line, dose-response (AID 1117345). The assay is classed as functional, cell-based.
Assay [4] is described as follows: Glucagon-like peptide 1 release potency, NCI-H716 cell line, dose-response, half-maximal inhibitory concentration (AID 1117344). In kind it is functional, cell-based.
The nature of assay [5]: HCT116 cell viability decrease, GSK3B pretreatment – CellTiter-Glo, IC50, dose response (AID 1117339). The assay is classed as functional. The conditions noted are these: HCT-116. For orientation: ATP-based viability assays read luminescence as a measure of living cells.
Assay [6] in a line: Concentration-dependent survival of SW480 colon cancer line, luminescence detection with CellTiter-Glo, half-maximal inhibitory concentration (AID 1117338). In kind it is functional.
Assay [7] in a line: cytotoxicity toward HT-29 cells – cell-based, CellTiter-Glo luminescence, IC50, dose response (AID 1117330). The assay is classed as functional.
Assay [8] is described as follows: SNU-C1 cell viability reduction, dose response, CellTiter-Glo luminescence (AID 1117323). The assay is classed as functional, cell-based.
Assay [9] is described as follows: RKO cell viability reduction, dose response, CellTiter-Glo luminescence (AID 1117322). The assay is classed as functional.
A short description of assay [10]: cytotoxicity toward HCT116 cells – cell-based, CellTiter-Glo luminescence, IC50, dose response (AID 1117332). In kind it is functional. The conditions noted are these: HCT-116.
Assay [11] is described as follows: cytotoxicity toward Colo320 cells – cell-based, CellTiter-Glo luminescence, IC50, dose response (AID 1117334). The assay is classed as functional. The note with it: COLO 320.
The nature of assay [12]: CellTiter-Glo luminescent dose response of DLD-1 viability loss (AID 1117352). The assay is classed as functional.
Assay [13] addresses Metabotropic glutamate receptor 7 (Homo sapiens, UniProt Q14831). In words: mGlu7 positive allosteric modulators, dose response, cell-based, calcium mobilization, Galpha15 (AID 743384). The assay is classed as functional. A general note: A change in cytosolic calcium serves as a functional read-out for many receptors and channels.
Assay [14] addresses Peroxisome proliferator-activated receptor gamma/Nuclear receptor corepressor 2 (Homo sapiens, UniProt P37231+Q9Y618). In words: Counterscreen for NR2E3 inverse agonists: TR-FRET-based biochemical high throughput dose response assay to identify inverse agonists of the interaction between peroxisome proliferator-activated receptor gamma (PPARg) and nuclear receptor co-repressor 2 (NCOR2). In kind it is functional.

In assay [15] the target is Photoreceptor-specific nuclear receptor (Homo sapiens, UniProt Q9Y5X4). In words: NR2E3 inverse agonists, dose response, biochemical, TR-FRET (AID 463256). The assay is classed as functional.
Photoreceptor-specific nuclear receptor, sequence (Q9Y5X4 whole entry): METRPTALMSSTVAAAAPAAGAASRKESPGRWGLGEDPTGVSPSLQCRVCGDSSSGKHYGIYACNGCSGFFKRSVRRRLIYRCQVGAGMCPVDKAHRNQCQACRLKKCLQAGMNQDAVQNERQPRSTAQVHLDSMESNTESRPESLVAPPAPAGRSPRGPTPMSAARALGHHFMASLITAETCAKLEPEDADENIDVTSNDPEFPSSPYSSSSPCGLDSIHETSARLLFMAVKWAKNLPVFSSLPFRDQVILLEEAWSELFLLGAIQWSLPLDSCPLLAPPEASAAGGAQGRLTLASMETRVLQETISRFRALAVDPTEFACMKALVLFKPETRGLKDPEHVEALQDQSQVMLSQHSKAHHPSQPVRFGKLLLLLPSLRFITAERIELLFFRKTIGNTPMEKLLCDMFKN
Assay [16] is described as follows: cytotoxicity in HEK-293T cells, dose response, cytotoxicity control for TCR NF-kB inhibitor project, luminescence, T-cell screen hits (AID 489026).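 Further: cells exposed to compound about 14 hours before the viability readout.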 The assay is classed as functional, cell-based.
Assay [17] has as its system Streptococcus. In words: Group A Streptococcus viability loss, dose response, counter-screen for streptokinase expression inhibitor project, luminescence, BacTiterGlo (AID 1915).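 Further: potency for reduction of bacterial viability or growth.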 The assay is classed as functional, organism-based. In general terms: A counterscreen serves to expose hits that act by an unwanted route or on another target.
For assay [18], the target named is T2, Tyrosine-protein phosphatase non-receptor type 7 (Homo sapiens, UniProt P35236).
T2 sequence (P35236 whole entry): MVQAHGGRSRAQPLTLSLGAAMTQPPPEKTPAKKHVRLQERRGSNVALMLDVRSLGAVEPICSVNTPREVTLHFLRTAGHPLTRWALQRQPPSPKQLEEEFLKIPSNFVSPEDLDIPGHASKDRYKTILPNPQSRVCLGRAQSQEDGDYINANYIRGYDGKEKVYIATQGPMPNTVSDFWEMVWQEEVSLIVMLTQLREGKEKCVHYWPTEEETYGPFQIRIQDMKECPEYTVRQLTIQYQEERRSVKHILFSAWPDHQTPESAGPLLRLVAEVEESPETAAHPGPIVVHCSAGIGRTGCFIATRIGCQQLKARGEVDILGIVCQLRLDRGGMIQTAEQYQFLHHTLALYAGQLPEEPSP
In words: inhibitors of human HePTP phosphatase, […], biochemical, absorbance, leukemia target (AID 521). The assay is classed as functional.

In assay [19] the target is T3, Streptokinase A (Streptococcus pyogenes serotype M1, UniProt P10520).
T3 sequence (P10520 whole entry): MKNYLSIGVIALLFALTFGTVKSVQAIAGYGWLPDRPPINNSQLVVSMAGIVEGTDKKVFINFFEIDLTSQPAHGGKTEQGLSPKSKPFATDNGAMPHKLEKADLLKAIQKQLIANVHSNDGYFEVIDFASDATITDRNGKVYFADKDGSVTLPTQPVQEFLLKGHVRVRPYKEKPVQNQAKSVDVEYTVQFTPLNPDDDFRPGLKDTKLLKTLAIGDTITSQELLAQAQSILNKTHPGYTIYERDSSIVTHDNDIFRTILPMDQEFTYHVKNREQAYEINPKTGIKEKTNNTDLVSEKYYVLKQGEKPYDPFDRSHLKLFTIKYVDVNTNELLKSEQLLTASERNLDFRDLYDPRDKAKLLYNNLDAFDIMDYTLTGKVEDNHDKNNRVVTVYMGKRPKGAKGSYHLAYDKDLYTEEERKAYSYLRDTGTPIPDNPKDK
In words: S. pyogenes streptokinase expression inhibitors, potency, dose response, plasminogen activation absorbance, OD405 (AID 1914).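 Further: secreted streptokinase activity via plasminogen activation per viability signal from cell pellet.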 The assay is classed as functional, Streptococcus pyogenes M1 GAS.

The nature of assay [20]: P. falciparum Dd2 growth inhibitors, dose response, SYBR Green, dry powder samples, set 4 (AID 1159572). In kind it is functional, cell-based.
Assay [21] addresses Cytochrome P450 2C19 (Homo sapiens, UniProt P33261). In words: qHTS Assay for Inhibitors and Substrates of Cytochrome P450 2C19. [Related pubchem assays: 410 ]. The assay is classed as ADME. The conditions noted are these: read-out: Potency.

Activity calls are given as the source filed them.

Peroxisome proliferator-activated receptor gamma/Nuclear receptor corepressor 2, sequence (P37231 whole entry): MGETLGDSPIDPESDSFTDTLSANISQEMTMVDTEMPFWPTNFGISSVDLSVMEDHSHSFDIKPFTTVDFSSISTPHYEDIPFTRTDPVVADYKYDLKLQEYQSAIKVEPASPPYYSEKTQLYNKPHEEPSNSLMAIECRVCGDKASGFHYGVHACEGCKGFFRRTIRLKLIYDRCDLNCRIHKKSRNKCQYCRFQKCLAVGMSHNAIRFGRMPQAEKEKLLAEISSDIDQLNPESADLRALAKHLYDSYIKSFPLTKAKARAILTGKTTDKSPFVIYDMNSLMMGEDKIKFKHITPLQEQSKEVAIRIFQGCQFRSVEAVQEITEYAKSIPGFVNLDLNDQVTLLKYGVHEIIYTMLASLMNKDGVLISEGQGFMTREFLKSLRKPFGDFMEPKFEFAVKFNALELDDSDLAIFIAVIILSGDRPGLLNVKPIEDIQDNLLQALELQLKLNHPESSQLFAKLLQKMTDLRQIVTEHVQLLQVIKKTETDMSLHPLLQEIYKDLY
Peroxisome proliferator-activated receptor gamma/Nuclear receptor corepressor 2, sequence (Q9Y618 whole entry): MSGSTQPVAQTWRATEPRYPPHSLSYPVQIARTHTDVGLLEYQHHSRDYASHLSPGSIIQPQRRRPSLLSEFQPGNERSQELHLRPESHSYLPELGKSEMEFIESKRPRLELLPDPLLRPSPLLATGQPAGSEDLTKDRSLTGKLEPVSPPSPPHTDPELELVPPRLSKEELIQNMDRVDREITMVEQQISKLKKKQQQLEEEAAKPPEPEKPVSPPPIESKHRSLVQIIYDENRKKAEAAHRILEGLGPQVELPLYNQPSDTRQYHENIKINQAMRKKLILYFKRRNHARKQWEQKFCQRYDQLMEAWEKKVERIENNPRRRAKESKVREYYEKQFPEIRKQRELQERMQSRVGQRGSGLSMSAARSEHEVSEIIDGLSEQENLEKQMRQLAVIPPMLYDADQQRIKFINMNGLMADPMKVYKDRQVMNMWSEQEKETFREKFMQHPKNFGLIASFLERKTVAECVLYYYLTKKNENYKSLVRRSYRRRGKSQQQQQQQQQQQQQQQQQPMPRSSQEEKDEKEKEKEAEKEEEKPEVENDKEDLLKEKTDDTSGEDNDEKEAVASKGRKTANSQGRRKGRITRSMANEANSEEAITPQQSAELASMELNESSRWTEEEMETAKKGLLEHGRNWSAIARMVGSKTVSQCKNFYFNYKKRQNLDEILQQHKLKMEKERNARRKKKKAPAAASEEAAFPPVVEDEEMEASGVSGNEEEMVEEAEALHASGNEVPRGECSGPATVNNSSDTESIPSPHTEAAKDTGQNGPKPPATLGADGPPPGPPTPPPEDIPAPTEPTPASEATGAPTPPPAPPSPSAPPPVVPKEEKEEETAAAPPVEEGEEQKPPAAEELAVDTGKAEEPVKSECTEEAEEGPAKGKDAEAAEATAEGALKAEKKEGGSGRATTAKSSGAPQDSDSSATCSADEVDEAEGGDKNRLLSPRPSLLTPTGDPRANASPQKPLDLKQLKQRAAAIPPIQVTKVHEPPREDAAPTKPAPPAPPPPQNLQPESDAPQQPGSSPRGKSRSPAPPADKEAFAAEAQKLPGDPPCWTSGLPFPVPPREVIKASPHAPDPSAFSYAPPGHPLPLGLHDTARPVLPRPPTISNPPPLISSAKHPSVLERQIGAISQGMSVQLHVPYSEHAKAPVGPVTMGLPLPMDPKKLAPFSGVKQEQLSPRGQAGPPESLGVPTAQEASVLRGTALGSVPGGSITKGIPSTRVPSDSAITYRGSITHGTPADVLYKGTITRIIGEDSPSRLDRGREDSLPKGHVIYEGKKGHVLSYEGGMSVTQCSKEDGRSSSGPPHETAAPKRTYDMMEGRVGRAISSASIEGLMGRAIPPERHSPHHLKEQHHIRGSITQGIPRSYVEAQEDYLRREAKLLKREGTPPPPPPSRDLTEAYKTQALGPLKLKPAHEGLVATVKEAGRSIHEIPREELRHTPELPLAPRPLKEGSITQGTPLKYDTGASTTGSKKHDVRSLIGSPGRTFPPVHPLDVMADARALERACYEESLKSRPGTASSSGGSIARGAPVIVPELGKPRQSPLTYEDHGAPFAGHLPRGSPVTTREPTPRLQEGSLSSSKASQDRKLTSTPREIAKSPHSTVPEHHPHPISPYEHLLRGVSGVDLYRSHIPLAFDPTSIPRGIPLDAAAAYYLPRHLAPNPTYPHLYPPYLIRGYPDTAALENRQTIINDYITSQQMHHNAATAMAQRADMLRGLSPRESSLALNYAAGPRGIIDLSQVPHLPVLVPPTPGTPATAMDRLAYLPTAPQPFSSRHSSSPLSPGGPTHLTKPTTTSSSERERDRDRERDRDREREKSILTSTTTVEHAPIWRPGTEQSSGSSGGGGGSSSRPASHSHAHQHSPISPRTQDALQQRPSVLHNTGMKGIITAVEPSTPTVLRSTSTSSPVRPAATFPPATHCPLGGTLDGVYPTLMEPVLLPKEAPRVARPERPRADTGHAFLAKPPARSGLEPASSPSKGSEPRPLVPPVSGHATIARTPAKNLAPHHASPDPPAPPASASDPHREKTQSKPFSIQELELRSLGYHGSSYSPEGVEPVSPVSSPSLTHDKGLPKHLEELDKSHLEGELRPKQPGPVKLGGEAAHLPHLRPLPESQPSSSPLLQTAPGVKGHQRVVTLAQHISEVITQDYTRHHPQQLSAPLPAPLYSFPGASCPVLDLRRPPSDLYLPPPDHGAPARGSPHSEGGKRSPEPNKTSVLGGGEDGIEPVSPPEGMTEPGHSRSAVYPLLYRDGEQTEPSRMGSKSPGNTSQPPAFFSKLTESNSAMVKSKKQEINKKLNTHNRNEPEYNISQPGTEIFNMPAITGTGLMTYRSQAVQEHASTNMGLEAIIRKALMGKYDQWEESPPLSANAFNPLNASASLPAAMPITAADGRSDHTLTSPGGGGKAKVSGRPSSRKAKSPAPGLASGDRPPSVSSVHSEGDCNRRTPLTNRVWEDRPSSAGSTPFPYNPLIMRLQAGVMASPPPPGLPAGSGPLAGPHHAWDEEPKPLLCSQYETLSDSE
Metabotropic glutamate receptor 7, sequence (Q14831 whole entry): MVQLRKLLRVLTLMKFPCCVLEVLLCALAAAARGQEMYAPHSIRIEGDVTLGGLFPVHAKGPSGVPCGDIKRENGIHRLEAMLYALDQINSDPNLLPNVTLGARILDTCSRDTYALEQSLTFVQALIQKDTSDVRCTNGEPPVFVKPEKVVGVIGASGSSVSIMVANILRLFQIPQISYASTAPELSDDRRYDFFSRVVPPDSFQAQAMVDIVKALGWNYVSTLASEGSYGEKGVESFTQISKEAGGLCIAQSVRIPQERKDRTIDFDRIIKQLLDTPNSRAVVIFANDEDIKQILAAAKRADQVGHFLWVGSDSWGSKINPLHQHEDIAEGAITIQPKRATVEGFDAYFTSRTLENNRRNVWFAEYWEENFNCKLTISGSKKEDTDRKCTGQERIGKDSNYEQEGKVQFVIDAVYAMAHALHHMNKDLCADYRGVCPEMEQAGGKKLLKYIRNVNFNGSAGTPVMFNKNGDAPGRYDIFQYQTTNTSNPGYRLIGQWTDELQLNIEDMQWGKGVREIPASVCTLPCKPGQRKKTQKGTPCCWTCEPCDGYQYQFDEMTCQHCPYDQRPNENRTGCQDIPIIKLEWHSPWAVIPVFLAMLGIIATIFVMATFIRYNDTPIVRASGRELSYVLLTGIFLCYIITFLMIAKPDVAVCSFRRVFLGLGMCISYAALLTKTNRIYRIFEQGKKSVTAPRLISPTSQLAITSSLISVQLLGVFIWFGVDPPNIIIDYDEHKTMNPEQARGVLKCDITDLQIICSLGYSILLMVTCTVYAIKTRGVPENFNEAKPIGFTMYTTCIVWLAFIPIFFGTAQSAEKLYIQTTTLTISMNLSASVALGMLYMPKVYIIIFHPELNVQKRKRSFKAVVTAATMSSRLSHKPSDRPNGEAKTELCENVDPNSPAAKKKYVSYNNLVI

`O=C(NC1CC1)c1ccc(-n2sc3ccccc3c2=O)cc1`: the half-maximal inhibitory concentration (IC50) in assay [1] was 11.4 µM (active).
As for `CC(C)(Oc1ccc(C2CC2(Cl)Cl)cc1)C(=O)O` (stereo unspecified) [CIPROFIBRATE], in [2], the AC50 is 70.8 µM (inconclusive). Also, the IC50 in [3] and in assay [4] was > 40 µM (inactive) throughout.
With `O=C(Nc1ccc(Cl)cc1)Nc1ccc(Cl)c(C(F)(F)F)c1` [CLOFLUCARBAN], the IC50 was 0.003 µM (active) in assay [5]; 0.009 µM (active) in [6]; 0.001 µM (active) in assay [7]; 0.009 µM (active) in assay [8]; 0.003 µM (active) in assay [9]; 0.003 µM (active) in assay [10]. Also, the values for the IC50 in assay [11] and in assay [12] were 0.003 µM (active) and 0.027 µM (active), respectively.
Regarding `COC(=O)c1ccc(-n2c(C)cc(C(=O)COc3ccc(OC(C)=O)cc3)c2C)cc1`, the EC50 in assay [13] is 10 µM (active).
Regarding `COc1ccc(-n2nc(C(=O)NCC(=O)NCc3ccc(F)cc3)c3ccccc3c2=O)cc1OC`, the IC50 is 0.941 µM (active) in [14] and 1.46 µM (active) in assay [15].
For the compound `COc1cccc2sc(Nc3nnc(-c4ccccc4Cl)o3)nc12`, the IC50 in assay [16] was 61.1 µM (inactive); in assay [18] it was > 100 µM (not active). Further, the figures for the EC50 in assay [17] and in [19] were > 150 µM (inconclusive) and > 150 µM (not active), respectively.
Take `COc1ccc2c3c([nH]c2c1)[C@H](CO)N(C(C)=O)CC31CCN(Cc2ccccc2Cl)CC1`: in assay [20], the AC50 was 17.1 µM (active).
For the compound `COC(=O)C(C(C)=O)C(NC(=O)NCc1ccccc1)c1ccccc1` (stereo unspecified), in [21], the AC50 is 1.26 µM (inconclusive).
